# Laboratory results from ChEMBL document CHEMBL5537159, “Discovery and SAR of JTE-151: A Novel RORγ Inhibitor for Clinical Development” (J Med Chem, 2024).
# Experiments:
# [1] = Apparent permeability in human Caco-2 cells at 25 umol/L incubated for 2 hrs by LC/MS/MS analysis; format: ADME, cell-based; settings: dose 25 µmol/L
# [2] = biological target: T1, Nuclear receptor ROR-gamma (Homo sapiens, UniProt P51449); test: Inhibition of GAL4 DNA-binding domain fused RORgamma (unknown origin) transfected in CHO-K1 cells incubated for 2 days by luciferase assay; format: cell-based
# T1 sequence (P51449 whole entry): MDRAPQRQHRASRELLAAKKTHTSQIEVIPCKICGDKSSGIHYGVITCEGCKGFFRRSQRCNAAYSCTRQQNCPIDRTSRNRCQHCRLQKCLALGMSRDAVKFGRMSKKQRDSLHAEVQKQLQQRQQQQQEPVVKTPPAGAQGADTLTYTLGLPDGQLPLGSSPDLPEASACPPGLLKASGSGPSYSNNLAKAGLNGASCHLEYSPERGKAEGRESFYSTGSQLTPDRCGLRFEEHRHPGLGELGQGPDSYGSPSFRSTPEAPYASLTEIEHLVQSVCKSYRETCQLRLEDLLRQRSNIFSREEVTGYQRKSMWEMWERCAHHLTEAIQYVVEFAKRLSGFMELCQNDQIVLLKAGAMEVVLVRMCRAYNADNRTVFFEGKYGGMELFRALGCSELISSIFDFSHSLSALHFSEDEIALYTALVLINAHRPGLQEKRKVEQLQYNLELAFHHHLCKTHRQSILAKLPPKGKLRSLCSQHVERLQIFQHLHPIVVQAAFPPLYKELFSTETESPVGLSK
# [3] = Lipophilicity, logD of compound by RP-HPLC analysis; format: physicochemical
# [4] = Metabolic stability in human liver microsomes assessed as compound remaining at 5 umol/L measured after 60 mins by UPLC/MS analysis; format: ADME, Microsome; settings: dose 5 µmol/L, read-out: Stability
"Papp at 2 h, 25 µM [1] [×10⁻⁶ cm/s]",EC50 [2] [nM],logD [3],"remaining at 1 h, 5 µM [4] [%]",Structure (SMILES)
21.8,63,4.1,0,Cc1ccc(NC(=O)C[C@H](Cc2nnn[nH]2)c2noc([C@H]3C[C@@H](CC(C)C)C3)c2C2CC2)c(C)c1
33.7,–,4.5,52,Cc1cc(C)cc(NC(=O)C[C@H](CC(=O)O)c2noc([C@H]3C[C@@H](CC(C)C)C3)c2C2CC2)c1
33.5,–,4.3,74,CC(C)C[C@H]1C[C@@H](c2onc([C@@H](CC(=O)O)CC(=O)Nc3ccc(F)cc3Cl)c2C2CC2)C1
0.7,6900,3.8,78,Cc1ccc(NC(=O)CC(c2nnc([C@H]3C[C@@H](CC(C)C)C3)n2C2CC2)C2CN(C)C2)c(C)c1 (mixture of isomers)
23.6,–,4.7,60,Cc1ccc(NC(=O)C[C@H](CC(=O)O)c2noc([C@H]3C[C@@H](C(C)(C)C(C)C)C3)c2C2CC2)c(C)c1
39.6,–,4.2,85,Cc1cccc(C)c1NC(=O)C[C@H](CC(=O)O)c1noc([C@H]2C[C@@H](CC(C)C)C2)c1C1CC1
27.6,260,5,77,Cc1ccc(NC(=O)C[C@@H](c2noc([C@H]3C[C@@H](CC(C)C)C3)c2C2CC2)C(C)(C)C(=O)O)c(C)c1
27.7,–,5.2,53,Cc1ccc(NC(=O)C[C@@H](c2noc([C@H]3C[C@@H](CC(C)C)C3)c2C2CC2)C(C)(C)CC(=O)O)c(C)c1
21.5,–,4.7,90,Cc1ccc(NC(=O)C[C@H](CC(=O)O)c2noc([C@H]3C[C@@H](CCC(C)C)C3)c2C2CC2)c(C)c1
27.4,43,4.4,67,Cc1ccc(NC(=O)C[C@H](CC(=O)O)c2noc([C@H]3C[C@@H](CC(C)C)C3)c2C2CC2)c(Cl)c1
22.8,–,5,61,Cc1ccc(NC(=O)C[C@H](CC(=O)O)c2noc([C@H]3C[C@@H](CCC(C)(C)C)C3)c2C2CC2)c(C)c1
19.8,–,–,61,CC(=O)N1C[C@H](C(=O)Nc2ccc(C)cc2C)[C@@H](c2nnc([C@H]3C[C@@H](CC(C)C)C3)n2C2CC2)C1
32,–,4.6,78,Cc1cc(C)c(NC(=O)C[C@H](CC(=O)O)c2noc([C@H]3C[C@@H](CC(C)C)C3)c2C2CC2)cc1C
22.5,–,5,65,CCC(C)(C)C[C@H]1C[C@@H](c2onc([C@@H](CC(=O)O)CC(=O)Nc3ccc(C)cc3C)c2C2CC2)C1
29.9,97,4.4,67,CC(C)C[C@H]1C[C@@H](c2onc([C@@H](CC(=O)O)CC(=O)Nc3ccc(Cl)cc3F)c2C2CC2)C1
18.3,150,4.3,27,Cc1ccc(NC(=O)CC(CC(=O)N(C)C)c2nnc([C@H]3C[C@@H](CC(C)C)C3)n2C2CC2)c(C)c1 (mixture of isomers)
32.4,–,4.5,65,Cc1ccc(NC(=O)C[C@H](CC(=O)O)c2noc([C@H]3C[C@@H](CC(C)C)C3)c2C2CC2)cc1C
25.3,30,4.4,0,Cc1ccc(NC(=O)C[C@H](CC(C)(C)O)c2nnc([C@H]3C[C@@H](CC(C)C)C3)n2C2CC2)c(C)c1.Cl
37.9,–,4.2,68,CCc1c([C@@H](CC(=O)O)CC(=O)Nc2ccc(C)cc2C)noc1[C@H]1C[C@@H](CC(C)C)C1
40.6,–,4.3,78,Cc1ccc(NC(=O)C[C@H](CC(=O)O)c2noc([C@H]3C[C@@H](CC(C)C)C3)c2C2CC2)c(C)c1
27.6,1200,4.3,54,C=C(C)c1c([C@@H](CC(=O)O)CC(=O)Nc2ccc(C)cc2C)noc1[C@H]1C[C@@H](CC(C)C)C1
14.5,–,5,42,Cc1ccc(NC(=O)C[C@H](CCC(=O)O)n2ncc([C@H]3C[C@@H](CC(C)(C)C)C3)c2C2CC2)c(Cl)c1

"Papp at 2 h, 25 µM [1] [×10⁻⁶ cm/s]",EC50 [2] [nM],logD [3],"remaining at 1 h, 5 µM [4] [%]",Structure (SMILES)
0.2,6000,3.1,91,Cc1ccc(NC(=O)CC(Cc2nnn[nH]2)c2nnc([C@H]3C[C@@H](CC(C)C)C3)n2C2CC2)c(C)c1 (mixture of isomers)
20.9,–,5.1,69,Cc1ccc(NC(=O)C[C@H](C[C@H]2C[C@@H](C(=O)O)C2)c2noc([C@H]3C[C@@H](CC(C)C)C3)c2C2CC2)c(C)c1
7.5,110,4.2,71,Cc1ccc(NC(=O)C[C@H](Cc2nc(C(=O)O)cs2)c2noc([C@H]3C[C@@H](CC(C)C)C3)c2C2CC2)c(C)c1
35.5,–,4.3,67,Cc1cccc(NC(=O)C[C@H](CC(=O)O)c2noc([C@H]3C[C@@H](CC(C)C)C3)c2C2CC2)c1C
15.2,–,4.1,0,Cc1ccc(NC(=O)C[C@H](c2nnc([C@H]3C[C@@H](CC(C)C)C3)n2C2CC2)[C@H]2C[C@@H](O)C2)c(C)c1
38,64,3.9,82,Cc1cc(F)ccc1NC(=O)C[C@H](CC(=O)O)c1noc([C@H]2C[C@@H](CC(C)C)C2)c1C1CC1
33.1,–,4.2,67,Cc1ccc(NC(=O)C[C@H](CC(=O)O)c2noc([C@H]3C[C@@H](CC(C)C)C3)c2C2CC2)c(F)c1
< 0.1,> 20000,3.7,95,Cc1ccc(NC(=O)CC(c2nnc([C@H]3C[C@@H](CC(C)C)C3)n2C2CC2)C2CNC2)c(C)c1.Cl (mixture of isomers)
0.1,3000,3.2,103,Cc1ccc(NC(=O)CC(CC(=O)O)c2nnc([C@H]3C[C@@H](CC(C)C)C3)n2C2CC2)c(C)c1 (mixture of isomers)
31.4,–,4.7,61,Cc1ccc(NC(=O)C[C@H](CCC(=O)O)c2noc([C@H]3C[C@@H](CC(C)C)C3)c2C2CC2)c(C)c1
30.6,–,4.5,73,Cc1ccc(NC(=O)C[C@H](CCC(=O)O)C(=O)N(C[C@H]2C[C@@H](CC(C)(C)C)C2)C2CC2)c(Cl)c1 (mixture of isomers)
24.9,–,3.8,64,Cc1ccc(NC(=O)C[C@H](OCC(=O)O)c2noc([C@H]3C[C@@H](CC(C)C)C3)c2C2CC2)c(C)c1
35.5,65,4.2,76,Cc1ccc(C)c(NC(=O)C[C@H](CC(=O)O)c2noc([C@H]3C[C@@H](CC(C)C)C3)c2C2CC2)c1
24.6,29,4.5,82,Cc1ccc(NC(=O)C[C@H](CC(=O)O)c2noc([C@H]3C[C@@H](CC(C)(C)C)C3)c2C2CC2)c(C)c1 (mixture of isomers)
20.7,16,–,52,Cc1ccc(NC(=O)CC(CCC(=O)O)c2ncnc([C@H]3C[C@@H](CC(C)(C)C)C3)c2C2CC2)c(Cl)c1 (mixture of isomers)
14.3,–,4.7,67,Cc1ccc(NC(=O)C[C@H](Cc2ccc(C(=O)O)cc2)c2noc([C@H]3C[C@@H](CC(C)C)C3)c2C2CC2)c(C)c1 (mixture of isomers)
23.3,660,4.4,37,Cc1ccc(NC(=O)C[C@H](CC(=O)O)c2noc([C@H]3C[C@@H](CC(C)C)C3)c2C(C)C)c(C)c1
27,< 32,4.5,75,Cc1ccc(NC(=O)CC(Cc2ncco2)c2nnc([C@H]3C[C@@H](CC(C)C)C3)n2C2CC2)c(C)c1 (mixture of isomers)
21.8,–,4.4,76,Cc1ccc(NC(=O)C[C@H](CC(=O)O)c2noc([C@H]3C[C@@H](CC(C)C)C3)c2C2CC2)c(C)c1C
–,–,4.4,39,Cc1ccc(NC(=O)CCc2nnc([C@H]3C[C@@H](CC(C)C)C3)n2C2CC2)c(C)c1
13.6,–,4.9,88,CCC(CC)C[C@H]1C[C@@H](c2onc([C@@H](CC(=O)O)CC(=O)Nc3ccc(C)cc3C)c2C2CC2)C1
